Experimental data from PubChem BioAssay (NCI).
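Protocol summary: plate cells (96-well), add compound at 5 concentrations, incubate 48 h, interpolate endpoints linearly. GI50 = concentration required for 50% inhibition of growth. TGI: total growth inhibition.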 Where a SMILES comes first, the peptide text is derived from it. [ ]: non-standard residue; d: D form. Ava = NCCCCC(=O)O; Mpa = O=C(O)CCS

How the values were obtained:
Test in all cases: NCI tumour cell line growth inhibition, 48 h
786-0 renal = test system: 786-0 renal
CAKI-1 renal = test system: CAKI-1 renal
COLO 205 colon = test system: COLO 205 colon
OVCAR-5 ovarian = test system: OVCAR-5 ovarian
OVCAR-8 ovarian = test system: OVCAR-8 ovarian
RPMI-8226 leukemia = test system: RPMI-8226 leukemia
SF-268 CNS = test system: SF-268 CNS
SK-MEL-5 melanoma = test system: SK-MEL-5 melanoma
SNB-75 CNS = test system: SNB-75 CNS
SR leukemia = test system: SR leukemia

## COc1ccccc1/C=C1\C(=O)N(C(=O)Cc2ccccc2)N=C1C
786-0 renal
  TGI: > 100 µM
CAKI-1 renal
  TGI: > 100 µM
COLO 205 colon
  TGI: > 100 µM
OVCAR-5 ovarian
  TGI: > 100 µM
OVCAR-8 ovarian
  TGI: > 100 µM
RPMI-8226 leukemia
  TGI: > 100 µM
SF-268 CNS
  TGI: > 100 µM
SK-MEL-5 melanoma
  TGI: > 100 µM
SNB-75 CNS
  TGI: > 100 µM
SR leukemia
  TGI: > 100 µM

## Cc1ccc(C(=O)Nc2ccc(S(=O)(=O)O)c3cc(S(=O)(=O)O)cc(S(=O)(=O)O)c23)cc1NC(=O)c1cccc(NC(=O)Nc2cccc(C(=O)Nc3cc(C(=O)Nc4ccc(S(=O)(=O)O)c5cc(S(=O)(=O)O)cc(S(=O)(=O)O)c45)ccc3C)c2)c1
786-0 renal
  TGI: > 100 µM
CAKI-1 renal
  TGI: > 100 µM
COLO 205 colon
  TGI: > 100 µM
OVCAR-5 ovarian
  TGI: > 100 µM
OVCAR-8 ovarian
  TGI: > 100 µM
RPMI-8226 leukemia
  TGI: > 100 µM
SF-268 CNS
  TGI: > 100 µM
SK-MEL-5 melanoma
  TGI: > 100 µM
SNB-75 CNS
  TGI: > 100 µM
SR leukemia
  TGI: > 100 µM

## O=C(Nc1ccccc1C(=O)NCc1ccccc1)/C(=C/c1ccccc1O)NC(=O)c1ccccc1
786-0 renal
  TGI: > 100 µM
CAKI-1 renal
  TGI: > 100 µM
COLO 205 colon
  TGI: > 100 µM
OVCAR-5 ovarian
  TGI: > 100 µM
OVCAR-8 ovarian
  TGI: > 100 µM
RPMI-8226 leukemia
  TGI: > 100 µM
SF-268 CNS
  TGI: > 100 µM
SK-MEL-5 melanoma
  TGI: > 100 µM
SNB-75 CNS
  TGI: 63.3 µM
SR leukemia
  TGI: > 100 µM

## CCO/N=C\c1ccc2oc(-c3ccccc3)cc(=O)c2c1
786-0 renal
  TGI: 17.7 µM
CAKI-1 renal
  TGI: 41.7 µM
COLO 205 colon
  TGI: 0.526 µM
OVCAR-5 ovarian
  TGI: 40 µM
OVCAR-8 ovarian
  TGI: 12.5 µM
RPMI-8226 leukemia
  TGI: 9.42 µM
SF-268 CNS
  TGI: 24.2 µM
SK-MEL-5 melanoma
  TGI: 5.54 µM
SNB-75 CNS
  TGI: 13.8 µM
SR leukemia
  TGI: 1.99 µM

## O=[N+]([O-])c1ccc2c(c1)nc1n2C(c2c(F)cccc2F)SC1 (configuration not stated)
786-0 renal
  TGI: > 100 µM
CAKI-1 renal
  TGI: > 100 µM
COLO 205 colon
  TGI: > 100 µM
OVCAR-5 ovarian
  TGI: > 100 µM
OVCAR-8 ovarian
  TGI: > 100 µM
RPMI-8226 leukemia
  TGI: > 100 µM
SF-268 CNS
  TGI: > 100 µM
SK-MEL-5 melanoma
  TGI: > 100 µM
SNB-75 CNS
  TGI: > 100 µM
SR leukemia
  TGI: > 100 µM

## CCC1(O)C(=O)OCc2c1cc1n(c2=O)Cc2cc3cc4c(cc3nc2-1)OCO4 (configuration not stated)
786-0 renal
  TGI: 0.102 µM
CAKI-1 renal
  TGI: 0.046 µM
COLO 205 colon
  TGI: 1.79 µM
OVCAR-5 ovarian
  TGI: 0.693 µM
OVCAR-8 ovarian
  TGI: 1.29 µM
RPMI-8226 leukemia
  TGI: 7 µM
SF-268 CNS
  TGI: 0.761 µM
SK-MEL-5 melanoma
  TGI: 0.02 µM
SNB-75 CNS
  TGI: 0.0369 µM
SR leukemia
  TGI: 3.79 µM

## ClCCCN1CCN(CCCl)CC1
786-0 renal
  TGI: 427 µM
CAKI-1 renal
  TGI: 358 µM
COLO 205 colon
  TGI: 468 µM
OVCAR-5 ovarian
  TGI: 737 µM
OVCAR-8 ovarian
  TGI: 348 µM
RPMI-8226 leukemia
  TGI: 743 µM
SF-268 CNS
  GI50: 38.6 µM
  TGI: > 892 µM
SK-MEL-5 melanoma
  TGI: 647 µM
SNB-75 CNS
  GI50: 43.2 µM
  TGI: 681 µM
SR leukemia
  GI50: 3.44 µM

## CCOC(=O)NC(Nc1ccc(F)cc1F)(C(F)(F)F)C(F)(F)F
786-0 renal
  TGI: > 100 µM
CAKI-1 renal
  TGI: > 100 µM
COLO 205 colon
  TGI: > 100 µM
OVCAR-5 ovarian
  TGI: > 100 µM
OVCAR-8 ovarian
  TGI: > 100 µM
RPMI-8226 leukemia
  TGI: > 100 µM
SF-268 CNS
  TGI: > 100 µM
SK-MEL-5 melanoma
  TGI: > 100 µM
SNB-75 CNS
  TGI: > 100 µM
SR leukemia
  TGI: > 100 µM

## COC(=O)C1(Cc2ccc3c(c2)CCC3)Cc2ccc3c(c2C1=O)CCC3 (configuration not stated)
786-0 renal
  TGI: > 91.3 µM
CAKI-1 renal
  TGI: > 100 µM
COLO 205 colon
  TGI: 9.16 µM
OVCAR-5 ovarian
  TGI: > 100 µM
OVCAR-8 ovarian
  TGI: > 100 µM
RPMI-8226 leukemia
  TGI: 52.7 µM
SF-268 CNS
  TGI: > 100 µM
SK-MEL-5 melanoma
  TGI: 28.2 µM
SNB-75 CNS
  TGI: > 55.5 µM
SR leukemia
  TGI: 7.76 µM

## CCC1c2[nH]c3ccccc3c2C[C@H]2C(=O)NC(C)C(=O)N12 (some centres not stated)
786-0 renal
  TGI: > 100 µM
CAKI-1 renal
  TGI: > 100 µM
COLO 205 colon
  TGI: > 100 µM
OVCAR-5 ovarian
  TGI: > 100 µM
OVCAR-8 ovarian
  TGI: > 100 µM
RPMI-8226 leukemia
  TGI: > 100 µM
SF-268 CNS
  TGI: > 100 µM
SK-MEL-5 melanoma
  TGI: > 100 µM
SNB-75 CNS
  TGI: > 100 µM
SR leukemia
  TGI: > 100 µM

## O=C(CCCc1cccc2[nH]c3c(c12)CN(Cc1ccccc1)CC3)c1ccc(F)cc1
786-0 renal
  TGI: > 100 µM
CAKI-1 renal
  TGI: > 100 µM
COLO 205 colon
  TGI: 31.4 µM
OVCAR-5 ovarian
  TGI: > 100 µM
OVCAR-8 ovarian
  TGI: > 100 µM
RPMI-8226 leukemia
  TGI: > 95.1 µM
SF-268 CNS
  TGI: > 100 µM
SK-MEL-5 melanoma
  TGI: 45.8 µM
SNB-75 CNS
  TGI: > 100 µM
SR leukemia
  TGI: > 100 µM

## COc1ccc(SCc2cc(OC)ccc2OC)cc1
786-0 renal
  TGI: > 100 µM
CAKI-1 renal
  TGI: > 100 µM
COLO 205 colon
  TGI: > 61 µM
OVCAR-5 ovarian
  TGI: > 100 µM
OVCAR-8 ovarian
  TGI: > 100 µM
RPMI-8226 leukemia
  TGI: > 100 µM
SF-268 CNS
  TGI: > 100 µM
SK-MEL-5 melanoma
  TGI: 98.9 µM
SNB-75 CNS
  TGI: > 52.8 µM
SR leukemia
  TGI: > 100 µM

## Nc1cc(C2CCCc3c2[nH]c2ccccc32)ccc1O (configuration not stated)
786-0 renal
  TGI: > 100 µM
CAKI-1 renal
  TGI: 84.5 µM
COLO 205 colon
  TGI: > 100 µM
OVCAR-5 ovarian
  TGI: > 100 µM
OVCAR-8 ovarian
  TGI: > 100 µM
RPMI-8226 leukemia
  TGI: 54.9 µM
SF-268 CNS
  TGI: > 100 µM
SK-MEL-5 melanoma
  TGI: > 100 µM
SNB-75 CNS
  TGI: > 100 µM
SR leukemia
  TGI: > 100 µM

## CC(NC(=O)CCS)C(=O)NC(C)C(=O)NC(Cc1c[nH]c2ccccc12)C(=O)NC(Cc1c[nH]cn1)C(=O)NC(CO)C(=O)NC(Cc1c[nH]c2ccccc12)C(=O)NCCCCC(=O)NC(C)C(=O)NC(CCC(N)=O)C(=O)NC(CCCCN)C(=O)NC(C)C(=O)NC(CCCNC(=N)N)C(=O)NC(CCCCN)C(N)=O (configuration not stated) ([Mpa]AAWHSW[Ava]AQKARK-NH2; configuration not given here)
786-0 renal
  TGI: > 100 µM
CAKI-1 renal
  TGI: > 100 µM
COLO 205 colon
  TGI: > 100 µM
OVCAR-5 ovarian
  TGI: > 100 µM
OVCAR-8 ovarian
  TGI: > 100 µM
RPMI-8226 leukemia
  TGI: > 100 µM
SF-268 CNS
  TGI: > 100 µM
SK-MEL-5 melanoma
  TGI: > 100 µM
SNB-75 CNS
  TGI: > 100 µM
SR leukemia
  TGI: > 100 µM

## CC(O)C(CO)NC(=O)C1CSSCC(NC(=O)C(N)Cc2ccccc2)C(=O)NC(Cc2ccccc2)C(=O)NC(Cc2c[nH]c3ccccc23)C(=O)NC(CCCCN)C(=O)NC(C(C)O)C(=O)N1 (configuration not stated)
786-0 renal
  TGI: > 100 µM
CAKI-1 renal
  TGI: > 100 µM
COLO 205 colon
  TGI: > 100 µM
OVCAR-5 ovarian
  TGI: > 100 µM
OVCAR-8 ovarian
  TGI: > 100 µM
RPMI-8226 leukemia
  TGI: > 100 µM
SF-268 CNS
  TGI: > 100 µM
SK-MEL-5 melanoma
  TGI: > 100 µM
SNB-75 CNS
  TGI: > 100 µM
SR leukemia
  TGI: > 100 µM
